# According to patent US6267968A, “MDP derivatives and conjugates having haematipoietic function stimulating activity, and compositions containing same” (Vacsyn S.A., priority 1995, dated 2001):
# B1: GM-CSF: recombinant mouse GM-CSF, lymphokine customarily used to stimulate myelocytes (protein, UniProt P01587 18-141, looked up)
# Granulocyte-macrophage …: APTRSPITVTRPWKHVEAIKEALNLLDDMPVTLNEEVEVVSNEFSFKKLTCVQTRLKIFEQGLRGNFTKLKGALNMTASYYQTYCPPTPETDCETQVTTYADFIDSLKTFLTDIPFECKKPGQK
# Assays:
# circulating myelocytes = test: Comparison of oral Muradimetide with MDPA after intravenous AZT, myelocyte count (Example 10); type: in vivo, female Swiss mice; settings: AZT 40 mg per kg i.v. days 0-3; MDPA 25 mg per kg 4 hours before AZT
# Method: In this experiment, female Swiss mice were treated intravenously with 40 mg per kg of AZT on days 0, 1, 2 and 3. Groups of 5 mice received on the same four days, and 4 hours before AZT, either physiological saline, or MDPA at a dose of 25 mg per kg or Muradimetide orally at a dose of 25 mg per kg. Myelocyte counts were carried out on days 0, 2, 3, 4 and 8. The asterisks above the histograms have the same meaning as in the previous diagrams.
# [1] = test system: circulating myelocytes (HSC); test: Mobilization of HSC after combined oral treatment with AZT and Muradimetide (Example 4); type: in vivo, mice
# Method: Table 3 below and FIG. 11 show the effect of an oral treatment of mice with Muradimetide before, at the same time as or after AZT administered at 50 mg per kg, on the number of circulating myelocytes tested 24 hours after 4 daily administrations.
# The mean number of circulating myelocytes before the treatment lies between 3 and 15×10^4 cells per ml in the 5 groups.
# The "P-value" was calculated by the Mann Whitney U Rank test.
# [2] = test system: circulating neutrophils, leukocytes, monocytes and myelocytes; test: Comparison of Muradimetide and GM-CSF after intravenous AZT (Example 9); type: in vivo, female Swiss mice; settings: AZT 40 mg per kg i.v. days 0-3
# Method: FIGS. 4, 5, 6 and 7 show the effect of a treatment of mice with Muradimetide or with mGM-CSF on the changes in the circulating neutrophils, in the circulating leukocytes or in the circulating monocytes or in the circulating myelocytes, respectively, after an intravenous administration of AZT.
# Female Swiss mice were treated intravenously with 40 mg per kg of AZT on days 0, 1, 2 and 3. The groups of mice (5 per group) receive, 4 hours before AZT, either physiological saline, or Muradimetide at 25 mg per kg or mGM-CSF at 125 μg per kg intravenously. Counts are done on days 0, 2, 3, 4 and 8. The asterisks above the histograms indicate that there is a significant difference in the count compared to the values obtained before the treatment on day 0.
# [3] = Muradimetide 25 mg per kg or mGM-CSF 125 μg per kg i.v. 4 hours before
molecule,measurement,setting,value
"CC(=O)N[C@H]1C(O)O[C@H](CO)[C@@H](O)[C@@H]1O[C@H](C)C(=O)N[C@@H](C)C(=O)N[C@H](CCC(=O)O)C(=O)O (stereo partly drawn) [MDPA, Nac--Mur--L--Ala--D--Glu]","antimyelotoxic effect and mobilization of HSC in the blood circulation (myelocyte count, FIG. 8)",circulating myelocytes,not occurring
"Cc1cn([C@H]2C[C@H](N=[N+]=[N-])[C@@H](CO)O2)c(=O)[nH]c1=O [AZT, 3'-azido-3'-deoxythymidine, reference compound]","effect on the mobilization of HSC (myelocyte count, FIG. 11)","[1]; MDM 25 mg/kg, AZT 50 mg/kg or mixture, oral, days 0-3 and 7-10 (2 weeks)",no effect
same,No. of circulating myelocytes,"[1]; p.o., one compound alone at 0 h (AZT 50 mg/Kg or Muradimetide 25 mg/Kg), 24 hours after 4 daily administrations",6 ± 8 × 10^4 /ml
B1,"HSC in the blood (circulating myelocytes, FIG. 7)",[2]; [3],does not do so
same,leukocyte and neutrophil counts,[2]; [3],do not display an increase
same,number of monocytes,[2]; mGM-CSF 125 μg per kg i.v. 4 hours before,increase in the number of monocytes
